Data set [1] in a line: Hemolysis assay, 50% lysis of RBC's. The format is cell-based, human. Particulars: 0.25% suspension of human erythrocytes (RBCs). The protocol: (§1) The biological activities of these peptides were measured using human erythrocytes and E. coli as models for mammalian and bacterial cells, respectively. Hemolysis was monitored in 10 mM Tris, 150 mM NaCl, pH 7.0, while the bacterial assay was conducted in minimal media M9 (Table 1); both of these solutions are sufficiently transparent to allow CD and ultracentrifugation measurements (supplementary material). Under the assay conditions, the peptides gave CD spectra similar to those in Tris buffer, with the exception of H-(β^3-HLeu-β^3-HLys-β^3-HLeu)n-OH, n=5 and 6.
(§2) ∇in M9 medium (data from Hamuro et al., ref. 5) # In M9 medium.+Hemolysis experiments were performed by incubating a 0.25% suspension of human RBc's in 10 mM Tris buffer containing […] at pH 7.0 with varying amounts of peptide. The hemolytic dose required to lyse 50% of the RBC's is reported as the HD50.
(§3) Hemolysis experiments were carried out by incubating 0.25% suspension of human erythrocytes (RBC's) with peptides of different concentrations in 150 mM sodium choloride, 10 mM Tris buffer, pH 7.0. The sample was prepared by combining 400 μL of the RBC suspension and […] of the peptide solution. After incubated the sample at 37— C. for 1 hour, the sample was centrifuged at 14,000 rpm for 5 min, and the OD414 of the supernatant was measured. Mellitin (50 μM) was used to get 100% hemolysis. The hemolytic IC50 was obtained by plotting hemolysis percentage vis. peptide concentration, and the concentration required for 50% hemolysis was determined from the smooth curve-fitted graph.
(§4) The activity and selectivity of peptide 1 and peptide 2 were examined by antibacterial assay and hemolysis experiments. E. Coli and human erythrotytes (RBC) were used as models for bacterial cell and mammalian cell, respectively. The peptide concentration required for 50% bacterial growth suppression (IC50), and peptide concentration required for 50% RBC lysis (HD50) are listed in Table 3. […] The antibacterial activities of peptide 1 and peptide 2 are about the same except peptide 2 has slightly lower IC50. Similar trend has been observed in the previous study, that longer peptide tends to have higher activity. However, the difference in IC50 is much smaller for this series of peptide than the previously studied ones. Antibacterial peptide with good selectivity is usually represented by its low hemolysis ability. […] The HD50 is 670 μM for peptide 1 and 240 μM for peptide 2, which gives a selectivity of 111 for peptide 1 and 60 for peptide 2.

A further data set relates to K91 E. coli. The format is cell-based. Particulars: K91, 9 h, pH 7.4. The method, then: as §1
Antibacterial assay was performed by incubation of K 91 E. coli and peptide of different concentrations in minimal media, at pH 7.4. The peptide solution (50 μL) and K 91 E. coli culture (20 μL, grown in minimal media for 24 hr-36 hr) were mixed with 1 mL minimal media. […] The peptide dose required for 50% suppress of bacterial growth was obtained from the smooth fitted OD600 vs. log[peptide] curve.
as §4

The test system of data set [2] is human erythrocytes (RBC's). The experiment in a line: Hemolysis assay, 50% lysis of RBC's. The class given is cell-based. The note with it: pH 7. The method, then: as §1, §2, §3, §4
The conditions of data set [3]: In LB medium (data from Oh et al.); cited from earlier work.
The test system of a further data set is micF-lux fusion. The experiment in a line: Stress-induced response assay, induction of micF-lux fusion. The class given is cell-based. The note with it: Table 4; regulatory gene Rob. The method, then: (§5) Stress-induced response and growth inhibition assays were carried out on samples of four of the β-peptide and compared to known polycationic peptides.
(§6) Polymyxin B was tested both rich, LB, medium and defined, M9, medium. The other natural peptides were tested in LB medium.
(§7) The β-peptides were tested in M9 medium. * In LB medium (data from Oh et al. Biochem. Biophys. Acta. 2000,1463: 43-54)
(§8) However, similar to the magainins, no induction of the micF-lux fusion was observed. Also, the minimum inhibitory concentrations (MIC's) were determined to be higher than those reported in the published manuscript.
(§9) Samples of these β-peptides 1 and 2 were evaluated in the stress-induced response assays.
(§10) The biolumenescence data result from test carried out according to U.S. Pat. No. 5,683,868, Highly Sensitive Method For Detecting Environmental Insults, issued Nov. 4, 1997 to LaRossa et al., the entire contents of the disclosure of are hereby incorporated by reference, The tests described in this patent permit antibacterial properties of peptides or any other materials to be assessed. […] Along these lines, FIG. 5 illustrates a relationship between relative light units and minutes of exposure of bacteria to the various materials in the legend. P×B represents polymyxin, a known antibacterial material. In the graph, a decrease in RULs corresponds to a decrease in bacteria. […]

Another data set relates to osmY-lux fusion. The experiment in a line: Stress-induced response assay, induction of osmY-lux fusion. The class given is cell-based. Particulars: Table 4; stress sensed osmotic shock. The method, then:
as §5, §6, §7, §8, §9, §10

This is an account of results in US6677431B2, “Design, preparation, and properties of antibacterial β-peptides” (The Trustees of the University of Pennsylvania, priority 1999, dated 2004).

Broadly, the IC50 is the concentration at which inhibition is half-maximal. Lower therefore signals greater potency.

Read-outs that look alike come from different tables or passages of the source. No end group written: not given here.

For `CC(C)C[C@@H](CC(=O)O)NC(=O)C[C@H](CCCCN)NC(=O)C[C@@H](NC(=O)C[C@H](CC(C)C)NC(=O)C[C@H](CCCCN)NC(=O)C[C@@H](NC(=O)OCC1c2ccccc2-c2ccccc21)C(C)C)C(C)C` [Fmoc-(β^3-HVal-β^3-HLys-β^3-HLeu)2-OH, Fmoc-(b^3-HVal-b^3-HLys-b^3-HLeu)2-OH], the HC50 at 1 h in data set [1] (human, pH 7) is above 100 µM. In the data set on K91 E. coli, this compound displayed an IC50 above 100 µM.

The compound `CC(C)C[C@@H](CC(=O)O)NC(=O)C[C@H](CCCCN)NC(=O)C[C@@H](NC(=O)C[C@H](CC(C)C)NC(=O)C[C@H](CCCCN)NC(=O)C[C@@H](NC(=O)C[C@H](CC(C)C)NC(=O)C[C@H](CCCCN)NC(=O)C[C@@H](NC(=O)OCC1c2ccccc2-c2ccccc21)C(C)C)C(C)C)C(C)C` [Fmoc-(β^3-HVal-β^3-HLys-β^3-HLeu)3-OH, Fmoc-(b^3-HVal-b^3-HLys-b^3-HLeu)3-OH] came in with an HD50+ in data set [2] of 6.3 µM. In data set [1] (human, pH 7), this compound had an HC50 at 1 h of 6.3 µM. The same compound yielded a 50% inhibitory concentration (IC50) in the data set on K91 E. coli of 15 µM. Consider `CC(C)C[C@@H](CC(=O)O)NC(=O)C[C@H](CCCCN)NC(=O)C[C@@H](NC(=O)C[C@H](CC(C)C)NC(=O)C[C@H](CCCCN)NC(=O)C[C@@H](NC(=O)C[C@H](CC(C)C)NC(=O)C[C@H](CCCCN)NC(=O)C[C@@H](NC(=O)C[C@H](CC(C)C)NC(=O)C[C@H](CCCCN)NC(=O)C[C@@H](NC(=O)OCC1c2ccccc2-c2ccccc21)C(C)C)C(C)C)C(C)C)C(C)C` [Fmoc-(β^3-HVal-β^3-HLys-β^3-HLeu)4-OH, Fmoc-(b^3-HVal-b^3-HLys-b^3-HLeu)4-OH], for which, in data set [1] (human, pH 7), the HC50 at 1 h worked out at 0.31 µM. This compound also returned an IC50 in the data set on K91 E. coli of 1.5 µM.

In turn, `CC(C)C[C@H](N)CC(=O)N[C@@H](CCCCN)CC(=O)N[C@H](CC(=O)N[C@H](CC(=O)N[C@@H](CCCCN)CC(=O)N[C@H](CC(=O)O)CC(C)C)CC(C)C)CC(C)C` [H-(β^3-HLeu-β^3-HLys-β^3-HLeu)2-OH, H-(b^3-HLeu-b^3-HLys-b^3-HLeu)2-OH] showed an HC50 at 1 h in data set [1] (human, pH 7) above 100 µM. This compound returned an IC50 in the data set with K91 E. coli above 100 µM. `CC(C)C[C@H](N)CC(=O)N[C@@H](CCCCN)CC(=O)N[C@H](CC(=O)N[C@H](CC(=O)N[C@@H](CCCCN)CC(=O)N[C@H](CC(=O)N[C@H](CC(=O)N[C@@H](CCCCN)CC(=O)N[C@H](CC(=O)O)CC(C)C)CC(C)C)CC(C)C)CC(C)C)CC(C)C` [H-(β^3-HLeu-β^3-HLys-β^3-HLeu)3-OH, H-(b^3-HLeu-b^3-HLys-b^3-HLeu)3-OH] had an HC50 at 1 h in data set [1] (human, pH 7) above 100 µM. Besides, the midpoint of inhibition with K91 E. coli, the IC50, lay at 35 µM. Consider `CC(C)C[C@H](N)CC(=O)N[C@@H](CCCCN)CC(=O)N[C@H](CC(=O)N[C@H](CC(=O)N[C@@H](CCCCN)CC(=O)N[C@H](CC(=O)N[C@H](CC(=O)N[C@@H](CCCCN)CC(=O)N[C@H](CC(=O)N[C@H](CC(=O)N[C@@H](CCCCN)CC(=O)N[C@H](CC(=O)O)CC(C)C)CC(C)C)CC(C)C)CC(C)C)CC(C)C)CC(C)C)CC(C)C` [H-(β^3-HLeu-β^3-HLys-β^3-HLeu)4-OH, H-(b^3-HLeu-b^3-HLys-b^3-HLeu)4-OH], for which the HD50+ in data set [2] was determined as 2.6 µM. In addition, the HC50 at 1 h in data set [1] (human, pH 7) is 2.6 µM. This compound also registered an IC50 in the data set on K91 E. coli of 1.7 µM. Take `CC(C)C[C@H](N)CC(=O)N[C@@H](CCCCN)CC(=O)N[C@H](CC(=O)N[C@H](CC(=O)N[C@@H](CCCCN)CC(=O)N[C@H](CC(=O)N[C@H](CC(=O)N[C@@H](CCCCN)CC(=O)N[C@H](CC(=O)N[C@H](CC(=O)N[C@@H](CCCCN)CC(=O)N[C@H](CC(=O)N[C@H](CC(=O)N[C@@H](CCCCN)CC(=O)N[C@H](CC(=O)O)CC(C)C)CC(C)C)CC(C)C)CC(C)C)CC(C)C)CC(C)C)CC(C)C)CC(C)C)CC(C)C` [H-(β^3-HLeu-β^3-HLys-β^3-HLeu)5-OH, H-(b^3-HLeu-b^3-HLys-b^3-HLeu)5-OH]: the HD50+ in data set [2] turned out to be 0.23 µM. The same compound returned an HC50 at 1 h in data set [1] (human, pH 7) of 0.23 µM. Take `CC(C)C[C@H](N)CC(=O)N[C@@H](CCCCN)CC(=O)N[C@H](CC(=O)N[C@H](CC(=O)N[C@@H](CCCCN)CC(=O)N[C@H](CC(=O)N[C@H](CC(=O)N[C@@H](CCCCN)CC(=O)N[C@H](CC(=O)N[C@H](CC(=O)N[C@@H](CCCCN)CC(=O)N[C@H](CC(=O)N[C@H](CC(=O)N[C@@H](CCCCN)CC(=O)N[C@H](CC(=O)N[C@H](CC(=O)N[C@@H](CCCCN)CC(=O)N[C@H](CC(=O)O)CC(C)C)CC(C)C)CC(C)C)CC(C)C)CC(C)C)CC(C)C)CC(C)C)CC(C)C)CC(C)C)CC(C)C)CC(C)C` [H-(β^3-HLeu-β^3-HLys-β^3-HLeu)6-OH, H-(b^3-HLeu-b^3-HLys-b^3-HLeu)6-OH]: in data set [2], the “HD50+” value turned out to be 0.081. The HC50 at 1 h in data set [1] (human, pH 7) was 0.081 µM. As to `CC(C)C[C@@H](CC(=O)O)NC(=O)C[C@H](CCCCN)NC(=O)C[C@@H](NC(=O)C[C@H](CC(C)C)NC(=O)C[C@H](CCCCN)NC(=O)C[C@@H](N)C(C)C)C(C)C` [H-(β^3-HVal-β^3-HLys-β^3-HLeu)2-OH, H-(b^3-HVal-b^3-HLys-b^3-HLeu)2-OH], the HC50 at 1 h in data set [1] (human, pH 7) is above 100 µM. In addition, the IC50 in the data set with K91 E. coli was above 100 µM. As for `CC(C)C[C@@H](CC(=O)O)NC(=O)C[C@H](CCCCN)NC(=O)C[C@@H](NC(=O)C[C@H](CC(C)C)NC(=O)C[C@H](CCCCN)NC(=O)C[C@@H](NC(=O)C[C@H](CC(C)C)NC(=O)C[C@H](CCCCN)NC(=O)C[C@@H](N)C(C)C)C(C)C)C(C)C` [H-(β^3-HVal-β^3-HLys-β^3-HLeu)3-OH, H-(b^3-HVal-b^3-HLys-b^3-HLeu)3-OH], the HC50 at 1 h in data set [1] (0.25% human erythrocytes, 10 mM Tris, 150 mM NaCl, pH 7.0, 1 h at 37° C., read-out: Hemolysis HD50) came out at 86 µM. For the same compound, 41 µM corresponded to half-maximal inhibition in the data set on K91 E. coli (IC50).

The compound `CC(C)C[C@@H](CC(=O)O)NC(=O)C[C@H](CCCCN)NC(=O)C[C@@H](NC(=O)C[C@H](CC(C)C)NC(=O)C[C@H](CCCCN)NC(=O)C[C@@H](NC(=O)C[C@H](CC(C)C)NC(=O)C[C@H](CCCCN)NC(=O)C[C@@H](NC(=O)C[C@H](CC(C)C)NC(=O)C[C@H](CCCCN)NC(=O)C[C@@H](N)C(C)C)C(C)C)C(C)C)C(C)C` [H-(β^3-HVal-β^3-HLys-β^3-HLeu)4-OH, H-(b^3-HVal-b^3-HLys-b^3-HLeu)4-OH] registered an HC50 at 1 h in data set [1] (human, pH 7) of 4.2 µM. Also, the IC50 in the data set on K91 E. coli is 2.1 µM. For the compound “Cecropin A (KWKLFKKIEKVGQNIRDGIIKAGPAVAVVGQATQIAK; ends and bridges not checked; UniProt P01507 27-63, looked up) [known polycationic natural peptide]”, the “MIC*” value in data set [3] was 0.1 µM. Regarding “Cecropin B (KWKVFKKIEKMGRNIRNGIVKAGPAIAVLGEAKAL; ends and bridges not checked; UniProt P01508 27-61, looked up) [known polycationic natural peptide]”, in data set [3], the “MIC*” value is 0.1 µM.

With “Magainin 1 (GIGKFLHSAGKFGKAFVGEIMKS; Magainin-1; UniProt P11006 37-59, looked up) [known polycationic natural peptide (frog skin)]”, the “MIC*” value in data set [3] was 12 µM. Regarding Magainin 2, the “MIC*” value in data set [3] was 5 µM.

On to Polymyxin B, for which, in data set [3], the “MIC*” value is 0.2 µM.

Consider Polymyxin E, for which the “MIC*” value in data set [3] was 0.15 µM.

On to Polymyxin [reference compound], for which the “micF gene fusion response” value with micF-lux fusion is “yes”. The “osmY gene fusion response” value in the data set on osmY-lux fusion was “yes”.
